The text below walks through data of US20230192700A1, “PYRAZOLOPYRAZINES ACTING ON CANCERS VIA INHIBITION OF CDK12” (Bayer Aktiengesellschaft, priority 2020, published 2023).

The target of test [1] is T1, CDK2/CyclinE (Homo sapiens, UniProt P24941).
T1 construct: GST; purchased ProQinase GmbH (Freiburg, Germany); host or cells: insect cells (Sf9)
The experiment in a line: CDK2/CycE kinase assay (TR-FRET). The format is biochemical. The following applies: 2 mM ATP (high ATP); median; read-out: CDK2/CyclinE, 2 mM ATP (high ATP) IC50 - [mol/l] (median). The procedure, abridged: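 GST-tagged human CDK2/CycE (Sf9-expressed, ~10 ng/mL) was preincubated 15 min with compound, then run 25 min at 22 °C with 2 mM ATP and 0.75 μM biotinylated peptide, pH 8.0. Phospho-substrate was detected by TR-FRET (anti-RB pSer807/811, Eu-anti-mouse, streptavidin-XL665), 665/620 nm ratio, normalised to no-inhibitor and no-enzyme controls.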

The subject of test [2] is BRCA1 mRNA expression in MDA-MB-231 cells. Put plainly: qRT-PCR assay: inhibition of BRCA1 mRNA expression in MDA-MB-231 cells. The format is cell-based, human. To be noted: Homo sapiens, MDA-MB-231, 24 h, 24 h exposure, BRCA1 mRNA normalised to GAPDH, median, read-out: RTqPCR-MDA-MB-231 IC50 [mol/l] BRCA1 (median). On the procedure:
(§1) 3. qRT-PCR Assay: BRCA1, ATR, MCL1 in MDA-MB-231, CAL-120
(§2) Tissue cultured human MDA-MB-231 human breast cancer cells were plated in 500 microL per well at 200,000 cells/well in a 24 well microtiter plate. After 24 h, the cells were exposed continuously for 24 h to test substances (substances were added with Tecan HP D300 Dispenser). RNA was prepared using Qiagen RNeasy MiniKit (#74106), RNA was quantified using a NanoDrop Equipment, and 600 nano gamms of RNA was coverted to cDNA using a SuperScript VILO kit (Thermofisher #11755050) followed by qPCR amplification. BRCA1 and ATR gene expression was measured by RT-qPCR and normalised to GAPDH housekeeping gene expression. qPCR primer sets have been purchased from Thermo Fisher Scientific/Applied Biosystems: BRCA1, # Hs 01556193; ATR, #Hs 00992123; GAPDH, #Hs 03929097.
(Real-time PCR tracks product formation cycle by cycle.)

In test [3] the test system is BRCA1 mRNA expression in CAL-120 cells. Put plainly: qRT-PCR assay: inhibition of BRCA1 mRNA expression in CAL-120 cells. The following applies: Homo sapiens, median, read-out: RTqPCR-CAL-120 IC50 [mol/l] BRCA1 (median). The format is cell-based. On the procedure:
as §1, §2

The target of test [4] is T2, CDK12 (Homo sapiens, UniProt Q9NYV4).
T2 construct: endogenous in cells; host or cells: CAL-120 human breast cancer cells (DSMZ ACC 459)
Put plainly: CDK12 protein level in CAL-120 cells (Protein Simple). Type of test: cell-based. To be noted: 18 h, CDK12/HSP90 peak area ratio, median, read-out: CDK12 protein level in CAL-120 breast ca cells DC50 - [mol/l] (median). On the procedure:
5. CDK12 protein level: Protein Simple (CDK12, CAL-120), Westernblot (CDK9, 12, 13)
CAL-120 human breast cancer cells (DSMZ ACC 459) were seeded at 300,000 cells/well in 6-well plates containing 2 mL of growth medium (DMEM, 10%FCS, glutamine) and incubated for 24 h at 37° C. in an humidified incubator. Test compounds were added at various concentrations, control wells received solvent (DMSO), and the plates were incubated for another 18h at 37° C. Cells were washed 2 times with PBS and lysed in 75 microL lysis buffer (MSD-Puffer (MSD, #R6OTX-2), +1% SDS+PhosSTOP (Roche #04906837001)+complete mini (Roche #04693159001)) by scraping. The lysates were pushed 2 times through Qiashedders followed by centrifugation at 14,000 rpm for 30-50 sec. The supernatant was stored at -20° C. […] CDK12 and HSP90 (loading control) were detected using anti-human CDK12 antibody (Cell Signaling Technologies (CST) #11793) at 1:25 dilution and anti-human HSP90 antibody (CST #4877) at 1:5,000 dilution. CDK12 and HSP90 peak areas were determined using Protein Simple Compass software. Ratio of CDK12/HSP90 peak areas were calculated for each sample, and DC50 values (degrading concentration to achieve 50% reduction relative to vehicle treated control) were determined by means of a 4 parameter fit.

T2 sequence (Q9NYV4 whole entry): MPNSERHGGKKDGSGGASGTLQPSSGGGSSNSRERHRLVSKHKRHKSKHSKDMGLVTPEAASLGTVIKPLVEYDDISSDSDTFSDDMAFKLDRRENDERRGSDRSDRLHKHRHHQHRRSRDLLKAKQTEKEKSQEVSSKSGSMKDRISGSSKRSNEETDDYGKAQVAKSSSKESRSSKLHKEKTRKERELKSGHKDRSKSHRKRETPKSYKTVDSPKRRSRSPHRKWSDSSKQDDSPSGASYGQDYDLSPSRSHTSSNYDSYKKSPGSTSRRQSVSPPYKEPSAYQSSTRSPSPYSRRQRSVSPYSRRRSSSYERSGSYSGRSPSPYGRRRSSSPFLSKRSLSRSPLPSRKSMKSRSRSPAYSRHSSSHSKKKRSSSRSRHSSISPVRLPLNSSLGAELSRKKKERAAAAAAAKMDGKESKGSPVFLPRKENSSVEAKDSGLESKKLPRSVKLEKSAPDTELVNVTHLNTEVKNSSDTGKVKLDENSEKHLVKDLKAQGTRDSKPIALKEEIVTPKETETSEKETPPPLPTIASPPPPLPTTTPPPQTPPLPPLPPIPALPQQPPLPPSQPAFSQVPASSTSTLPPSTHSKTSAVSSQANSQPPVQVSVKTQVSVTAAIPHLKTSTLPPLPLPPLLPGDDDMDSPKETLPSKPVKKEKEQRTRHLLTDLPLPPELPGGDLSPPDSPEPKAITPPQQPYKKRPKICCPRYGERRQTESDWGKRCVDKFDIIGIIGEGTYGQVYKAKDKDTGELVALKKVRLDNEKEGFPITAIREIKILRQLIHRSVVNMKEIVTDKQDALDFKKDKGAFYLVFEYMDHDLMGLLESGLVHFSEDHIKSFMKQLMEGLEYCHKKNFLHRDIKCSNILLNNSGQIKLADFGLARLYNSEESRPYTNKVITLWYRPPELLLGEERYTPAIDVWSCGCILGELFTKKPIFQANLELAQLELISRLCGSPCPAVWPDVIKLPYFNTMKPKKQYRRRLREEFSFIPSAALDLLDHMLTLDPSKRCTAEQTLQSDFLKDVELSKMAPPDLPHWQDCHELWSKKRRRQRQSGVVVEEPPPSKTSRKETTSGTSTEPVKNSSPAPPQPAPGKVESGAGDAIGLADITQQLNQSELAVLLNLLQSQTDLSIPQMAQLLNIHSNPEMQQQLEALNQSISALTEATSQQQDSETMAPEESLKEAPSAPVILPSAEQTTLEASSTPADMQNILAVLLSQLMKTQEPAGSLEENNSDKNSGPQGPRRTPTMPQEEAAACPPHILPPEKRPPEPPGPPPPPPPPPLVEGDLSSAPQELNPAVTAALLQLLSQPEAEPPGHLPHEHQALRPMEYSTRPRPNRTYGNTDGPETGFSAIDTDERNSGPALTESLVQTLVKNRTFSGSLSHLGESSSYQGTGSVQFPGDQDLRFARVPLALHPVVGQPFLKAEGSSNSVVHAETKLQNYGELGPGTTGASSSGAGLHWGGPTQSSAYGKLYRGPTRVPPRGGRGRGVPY
T2 sequence (O75909 whole entry partner): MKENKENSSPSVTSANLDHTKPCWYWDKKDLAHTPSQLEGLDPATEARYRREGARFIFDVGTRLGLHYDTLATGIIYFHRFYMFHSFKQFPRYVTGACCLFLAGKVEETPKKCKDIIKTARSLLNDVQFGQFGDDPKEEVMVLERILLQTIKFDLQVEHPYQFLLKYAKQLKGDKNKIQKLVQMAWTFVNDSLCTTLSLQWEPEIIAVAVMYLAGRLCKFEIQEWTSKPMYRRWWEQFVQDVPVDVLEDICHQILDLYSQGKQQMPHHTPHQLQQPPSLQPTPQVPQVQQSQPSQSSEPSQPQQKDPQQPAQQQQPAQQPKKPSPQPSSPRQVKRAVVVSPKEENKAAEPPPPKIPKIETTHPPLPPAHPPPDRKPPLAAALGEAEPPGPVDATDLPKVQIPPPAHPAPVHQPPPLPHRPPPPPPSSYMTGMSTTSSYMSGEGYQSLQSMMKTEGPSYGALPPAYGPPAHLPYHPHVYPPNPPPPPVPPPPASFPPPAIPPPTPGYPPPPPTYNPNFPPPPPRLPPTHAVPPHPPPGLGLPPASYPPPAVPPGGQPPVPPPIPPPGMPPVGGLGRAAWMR

For `c1ccc2[nH]c(CNc3nn(C4CCOCC4)c4nc(C5CC5)cnc34)nc2c1` [Example 16, N-[(1H-benzimidazol-2-yl)methyl]-6-cyclopropyl-1-(oxan-4-yl)-1H-pyrazolo[3,4-b]pyrazin-3-amine], the IC50 in test [1] is more than 20000 nM; in test [2], 12.9 nM; in test [3], 64.3 nM. In addition, the DC50 in test [4] was found to be 31.1 nM.
Turning to `CN1CCC(n2nc(NCc3nc4cc(F)c(F)cc4[nH]3)c3ncc(C4CC4)nc32)CC1` [Example 30, 6-cyclopropyl-N-[(5,6-difluoro-1H-benzimidazol-2-yl)methyl]-1-(1-methylpiperidin-4-yl)-1H-pyrazolo[3,4-b]pyrazin-3-amine], the IC50 in test [1] is more than 20000 nM; in test [2], 11.7 nM.
For `CN1CCC(n2nc(NCc3nc4c(Cl)c(F)ccc4[nH]3)c3ncc(C4CC4)nc32)CC1` [Example 31, N-[(4-chloro-5-fluoro-1H-benzimidazol-2-yl)methyl]-6-cyclopropyl-1-(1-methylpiperidin-4-yl)-1H-pyrazolo[3,4-b]pyrazin-3-amine], in that order: more than 20000 nM and 4.99 nM.
Taken in the same sequence, the figures for `Fc1ccc2[nH]c(CNc3nn(C4CCOCC4)c4nc(C5CC5)cnc34)nc2c1F` [Example 32, 6-cyclopropyl-N-[(4,5-difluoro-1H-benzimidazol-2-yl)methyl]-1-(oxan-4-yl)-1H-pyrazolo[3,4-b]pyrazin-3-amine] were more than 20000 nM and 29 nM.
For `Cc1cccc2[nH]c(CNc3nn(C4CCOCC4)c4nc(C5CC5)cnc34)nc12` [Example 33, 6-cyclopropyl-N-[(4-methyl-1H-benzimidazol-2-yl)methyl]-1-(oxan-4-yl)-1H-pyrazolo[3,4-b]pyrazin-3-amine], in that order: more than 20000 nM and 16.9 nM.
`c1ccc2[nH]c(CNc3nn(C4CCCC4)c4nc(C5CC5)cnc34)nc2c1` [Example 39, N-[(1H-benzimidazol-2-yl)methyl]-1-cyclopentyl-6-cyclopropyl-1H-pyrazolo[3,4-b]pyrazin-3-amine]: the results for the IC50 in test [1] and in test [2] were more than 20000 nM and 107 nM, respectively.
For the compound `O[C@H]1C[C@@H](n2nc(NCc3nc4ccccc4[nH]3)c3ncc(C4CC4)nc32)C1` [Example 40, cis-3-(3-{[(1H-benzimidazol-2-yl)methyl]amino}-6-cyclopropyl-1H-pyrazolo[3,4-b]pyrazin-1-yl)cyclobutan-1-ol], the IC50 in test [1] was more than 20000 nM; in test [2], 8.65 nM.
Taken in the same sequence, the figures for `O[C@H]1C[C@H](n2nc(NCc3nc4ccccc4[nH]3)c3ncc(C4CC4)nc32)C1` [Example 43, trans-3-(3-{[(1H-benzimidazol-2-yl)methyl]amino}-6-cyclopropyl-1H-pyrazolo[3,4-b]pyrazin-1-yl)cyclobutan-1-ol] were more than 20000 nM and 28.9 nM.
For `c1ccc2[nH]c(CNc3nn(C4C[C@H]5CC[C@@H](C4)O5)c4nc(C5CC5)cnc34)nc2c1` (stereo partly drawn) [Example 45, exo/endo-N-[(1H-benzimidazol-2-yl)methyl]-6-cyclopropyl-1-(8-oxabicyclo[3.2.1]octan-3-yl)-1H-pyrazolo[3,4-b]pyrazin-3-amine], in that order: more than 18200 nM and 7.6 nM.
For `OC[C@H]1C[C@H](n2nc(NCc3nc4ccccc4[nH]3)c3ncc(C4CC4)nc32)C1` [Example 46, [trans-3-(3-{[(1H-benzimidazol-2-yl)methyl]amino}-6-cyclopropyl-1H-pyrazolo[3,4-b]pyrazin-1-yl)cyclobutyl]methanol], in that order: more than 20000 nM and 4.02 nM.
Consider `OC[C@H]1C[C@@H](n2nc(NCc3nc4ccccc4[nH]3)c3ncc(C4CC4)nc32)C1` [Example 47, [cis-3-(3-{[(1H-benzimidazol-2-yl)methyl]amino}-6-cyclopropyl-1H-pyrazolo[3,4-b]pyrazin-1-yl)cyclobutyl]methanol], for which the values for the IC50 in test [1] and in test [2] were more than 20000 nM and 13.8 nM, respectively.
For `O[C@H]1CC[C@H](n2nc(NCc3nc4ccccc4[nH]3)c3ncc(C4CC4)nc32)CC1` [Example 50, trans-4-(3-{[(1H-benzimidazol-2-yl)methyl]amino}-6-cyclopropyl-1H-pyrazolo[3,4-b]pyrazin-1-yl)cyclohexan-1-ol], in that order: more than 20000 nM and 17.5 nM.
For `Fc1ccc2[nH]c(CNc3nn(C4CCOCC4)c4nc(C5CC5)cnc34)nc2c1` [Example 53, 6-cyclopropyl-N-[(5-fluoro-1H-benzimidazol-2-yl)methyl]-1-(oxan-4-yl)-1H-pyrazolo[3,4-b]pyrazin-3-amine], in that order: more than 20000 nM and 10.9 nM.
For `COC(C)(C)CCn1nc(NCc2nc3ccccc3[nH]2)c2ncc(C3CC3)nc21` [Example 67, N-[(1H-benzimidazol-2-yl)methyl]-6-cyclopropyl-1-(3-methoxy-3-methylbutyl)-1H-pyrazolo[3,4-b]pyrazin-3-amine], in that order: more than 20000 nM and 78 nM.
Regarding `O[C@H]1C[C@@H](Cn2nc(NCc3nc4ccccc4[nH]3)c3ncc(C4CC4)nc32)C1` [Example 71, cis-3-[(3-{[(1H-benzimidazol-2-yl)methyl]amino}-6-cyclopropyl-1H-pyrazolo[3,4-b]pyrazin-1-yl)methyl]cyclobutan-1-ol], the IC50 in test [1] is more than 20000 nM; in test [2], 3.01 nM.
Taken in the same sequence, the figures for `CC(C)(O)CCn1nc(NCc2nc3ccccc3[nH]2)c2ncc(C3CC3)nc21` [Example 76, 4-(3-{[(1H-benzimidazol-2-yl)methyl]amino}-6-cyclopropyl-1H-pyrazolo[3,4-b]pyrazin-1-yl)-2-methylbutan-2-ol] were more than 20000 nM and 7.4 nM.
